Measured values: ChEMBL document CHEMBL4811228, “Design, Synthesis, and Activity Evaluation of Novel Acyclic Nucleosides as Potential Anticancer Agents In Vitro and In Vivo” (J Med Chem, 2021)

What was measured:
SW480 = assay: Antiproliferative activity against human SW480 cells assessed as reduction in cell viability incubated for 48 hrs by MTT assay; format: functional, cell-based; settings: SW480, 48 h
HCT-116 = assay: Antiproliferative activity against human HCT-116 cells assessed as reduction in cell viability incubated for 48 hrs by MTT assay; format: functional, cell-based; settings: HCT-116, 48 h

Compound | IC50 (SW480) [µM] | IC50 (HCT-116) [µM]
OCCC(COCc1ccccc1)n1cnc2c(Cl)nc(F)nc21 (racemic) | 7.17 | 5.24
CCCCCCCCCCCC(CCO)n1cnc2c(NC)ncnc21 (racemic) | 12.8 | 15.4
O=C(OCC(CCO)n1cnc2c(Cl)nc(F)nc21)c1ccccc1 (racemic) | 7.24 | 5.17
CCCCCCC(CCO)n1cnc2c(N(C)C)ncnc21 (racemic) | > 50 | > 50
OCCC(COCc1ccccc1)n1cnc2c(Cl)ncnc21 (racemic) | > 50 | > 50
CCCCC(CCO)n1cnc2c(N)ncnc21 (racemic) | > 50 | > 50
CCCCC(CCO)n1cnc2c(Cl)nc(F)nc21 (racemic) | 13.2 | 13.5
CCCCCCCCC[C@H](CCOCP(=O)(OCC)OCC)n1cnc2c(Cl)ncnc21 | 5.57 | 10.9
CCCCCC(CCO)n1cnc2c(N)nc(Cl)nc21 (racemic) | > 50 | > 50
CC(CCO)n1cnc2c(Cl)ncnc21 (racemic) | > 50 | > 50
CCC(CCO)n1cnc2c(Cl)nc(F)nc21 (racemic) | 19.8 | 18.9
CCCCCC(CCO)n1cnc2c(N(C)C)ncnc21 (racemic) | > 50 | > 50
C=C(CO)C(CCCCC)n1cnc2c(Cl)ncnc21 (racemic) | > 50 | > 50
CCCCCC(CCO)n1cnc2c(N)ncnc21 (racemic) | > 50 | > 50
CCCCCC(CCO)n1cnc2c(Cl)ncnc21 (racemic) | > 50 | > 50
CCCCCCCCC(CCO)n1cnc2c(N)nc(Cl)nc21 (racemic) | 13.1 | 21
CC(C)(C)[Si](C)(C)OCC(CCO)n1cnc2c(Cl)ncnc21 (racemic) | 31.7 | > 50
CC(CCO)n1cnc2c(Cl)nc(F)nc21 (racemic) | 16.8 | 19.8
CCCCCCC(CCO)n1cnc2cncnc21 (racemic) | > 50 | > 50
CCCCCCC(CCO)n1cnc2c(N)ncnc21 (racemic) | > 50 | > 50
CCCCCCCCCC(CCO)n1cnc2c(N(C)C)ncnc21 (racemic) | 12.2 | 9.81
CCCCCCCCC[C@H](CCN=[N+]=[N-])n1cnc2c(Cl)ncnc21 | 1.22 | 1.19
CCCCCCCCC(CCO)n1cnc2c(N(C)C)ncnc21 (racemic) | 21.6 | 19.8
CCC(CCO)n1cnc2c(Cl)ncnc21 (racemic) | > 50 | > 50
CCCCCC(CCO)n1cnc2c(OC)ncnc21 (racemic) | > 50 | > 50

Compound | IC50 (SW480) [µM] | IC50 (HCT-116) [µM]
CCCCCCCCCCC(CCO)n1cnc2c(Cl)ncnc21 (racemic) | 3.16 | 4.93
C=C(CO)C(CCCCCCC)n1cnc2c(Cl)ncnc21 (racemic) | 29.4 | 22.4
CCCCCCC(CCO)n1c(Br)nc2c(Cl)ncnc21 (racemic) | 14.1 | 16.1
CCCCCCCCC(CCO)n1cnc2c(Cl)ncnc21 (racemic) | 1.37 | 1.65
CCCCCCCC[C@@H](CCO)n1cnc2c(Cl)ncnc21 | 2.33 | 3.4
CCCCCCCCC(CCO)n1cnc2c(N)ncnc21 (racemic) | 20.7 | 11.6
CCCCCCCC(CCO)n1cnc2c(N)nc(Cl)nc21 (racemic) | > 50 | > 50
CCCCCC(CCO)n1cnc2cncnc21 (racemic) | > 50 | > 50
CCCCCCC[C@H](CCO)n1cnc2c(Cl)ncnc21 | 2.93 | 2.67
CCCCCCC[C@@H](CCO)n1cnc2c(Cl)ncnc21 | 3.82 | 10.7
CC(C)(C)[Si](C)(C)OCC(CCO)n1cnc2c(Cl)nc(F)nc21 (racemic) | 8.02 | 7.78
CCCCCCCCCC(CCOCP(=O)(O)O)n1cnc2c(Cl)ncnc21 (racemic) | > 50 | > 50
CCCCCCCCCC(CCO)n1cnc2c(Cl)nc(Cl)nc21 (racemic) | 36.3 | 32.6
CCCCCCCCCCCCC(CCO)n1cnc2c(Cl)ncnc21 (racemic) | > 50 | > 50
CCCCCCCCCC(CCn1cc(-c2ccccc2)nn1)n1cnc2c(Cl)ncnc21 (racemic) | 9.92 | 13.5
CCCCCC(CCO)n1cnc2c(NC)ncnc21 (racemic) | > 50 | > 50
CCCCCCCCCCCC(CCO)n1cnc2c(Cl)ncnc21 (racemic) | 5.29 | 7.59
CCCC(CCO)n1cnc2c(Cl)ncnc21 (racemic) | > 50 | > 50
CCCCCCCCCCCC(CCO)n1cnc2c(N(C)C)ncnc21 (racemic) | 11.8 | 12
CCCCCCCCCCC(CCO)n1cnc2c(N)nc(Cl)nc21 (racemic) | 13.1 | 11.8
CCCCCCC(CCO)n1cnc2c(Cl)nc(F)nc21 (racemic) | 12.9 | 9.96
CCCCCCCCCC(CCO)n1cnc2c(N)ncnc21 (racemic) | 6.03 | 10.5
CCCCCCC(CCO)n1cnc2c(Cl)nc(Cl)nc21 (racemic) | 12.4 | 12.1
CCCCCCC(CCO)n1cnc2c(NC)ncnc21 (racemic) | > 50 | > 50
CCCCCCCCC[C@H](CCn1cc(-c2ccccc2)nn1)n1cnc2c(Cl)ncnc21 | 8.57 | 8.13

Compound | IC50 (SW480) [µM] | IC50 (HCT-116) [µM]
C=C(CO)C(CCCCCC)n1cnc2c(Cl)ncnc21 (racemic) | 32 | 30.2
C=C(CO)C(CCCCCCCC)n1cnc2c(Cl)ncnc21 (racemic) | 16.2 | 19.4
OCCCn1cnc2c(Cl)nc(F)nc21 | 29.7 | 39.8
CCCCCCCCC[C@@H](CCO)n1cnc2c(Cl)ncnc21 | 3.62 | 1.05
CCCCCCCCCC(CCCl)n1cnc2c(Cl)ncnc21 (racemic) | 7.18 | 10.2
O=C(OCC(CCO)n1cnc2c(Cl)ncnc21)c1ccccc1 (racemic) | > 50 | > 50
CCCCCC(CCO)n1cnc2c(Cl)nc(F)nc21 (racemic) | 7.44 | 8.66
CCCCCCCC(CCO)n1cnc2c(OC)ncnc21 (racemic) | 23.9 | 15.3
CCCCCCCCC[C@H](CCCl)n1cnc2c(Cl)ncnc21 | 3.18 | 9.58
CCCCCCCCCCCC(CCO)n1cnc2c(N)nc(Cl)nc21 (racemic) | 17.8 | 19.9
CCCCCCCCCCC(CCO)n1cnc2c(N(C)C)ncnc21 (racemic) | 3.32 | 5.49
CCCCCCCCCCCC(CCO)n1cnc2c(N)ncnc21 (racemic) | 11.6 | 13.3
CCCCCCCCC(CCO)n1cnc2c(Cl)nc(F)nc21 (racemic) | 15 | 24.2
CCCCC(CCO)n1cnc2c(OC)ncnc21 (racemic) | > 50 | > 50
CCCCCCCC(CCO)n1cnc2c(N(C)C)ncnc21 (racemic) | > 50 | > 50
CCCCCCCCC(CCO)n1cnc2c(Cl)nc(Cl)nc21 (racemic) | 24 | 22.2
CCCCCCC(CCO)n1cnc2c(Cl)ncnc21 (racemic) | 16.7 | 11.9
CCCCCCCCC(CCO)n1cnc2c(OC)ncnc21 (racemic) | 24.6 | 12.8
CCCCCCCCC[C@H](CCOS(C)(=O)=O)n1cnc2c(Cl)ncnc21 | 9.72 | 9.48
CCCCCCCC(CCO)n1cnc2c(Cl)nc(F)nc21 (racemic) | 26.1 | 17.6
C=C(CO)C(c1ccccc1)n1cnc2c(Cl)ncnc21 (racemic) | 12.9 | 33.3
CCCCCCCCCC(CCO)n1cnc2c(OC)ncnc21 (racemic) | 3.25 | 2.53
OCCC(CO)n1cnc2c(Cl)ncnc21 (racemic) | > 50 | > 50
